Test results from EP0124925A1, “Derivatives of d-2-(6-methoxy-2-naphthyl)-propionic acid having therapeutical activity, process for their preparation and pharmaceutical compositions containing them” (FARMA RESA SrL, priority 1983, dated 1984).
Where a name gives a salt, the structure may show the parent alone.

Assays:
[1] = solubility in water; assay type: physicochemical
[2] = mucolithic activity: viscosity of expectorate; details: 0.05M, one hour incubation at 37°C
Procedure: This test was carried out, in the manner known from the literature, in 13 ml samples of expectorate collected from hospitalized patients, and stored in a freezer at -20°C until the testing time.
At the tested concentration of the compound undergoing the experiment (0.05M) a viscosity reduction of 16% (29% to 13%) was found. ^7

[3] = tested on: Sprague-Dawaley male rats; assay: carrageenin induced oedema test (anti-inflammatory activity); assay type: in vivo; details: for ED33: Rattus norvegicus, carrageenin oedema inhibition
Procedure: This activity has been evaluated for the NXTP compound by the carrageenin induced oedema test, carried out in the manner known in the literature, in Sprague-Dawaley male rats, having a body weight of 180-200 g, the NXTP being administered to groups of 3 animals each at the dosages of 50, 100, 200 and 400 mg/kg, the results
being evalutaed in comparison with a control group.
Since in no caso an inhibition rate of 50% was attained, the value of ED 33 was calculated, it being 759 rng/kg (0,651 mM/kg).

[4] = tested on: Swiss male albine mice; assay: acetic acid induced stretching or writhing inhibition test (analgesic activity); assay type: in vivo
Procedure: This test was carried out in Swiss male albine mice, having a body weight of 30-40 g through the "stretching or writhing" inhibition test, as induced by acetic acid, the test being carried out in a manner per se known from the literature.

[5] = tested on: Sprague-Dawley male,rats; assay: yeast induced hyperpyrexy test (antipyretic activity); assay type: in vivo; details: Rattus norvegicus, tested dosages 100, 200 and 400 mg/kg
Procedure: This test has been carried out in the manner known from the literature in Sprague-Dawley male,rats, having a body weight of 190-220g, which were selected according to the rectal temperature which was of between 37.0 and 37.7°C.
The hyperpyrexy was induced by subcutaneous injection of 2.0 ml of a 7.5% suspension of yeast as prepared at the moment.
The tested dosages were 100, 200 and 400 mg/kg and the found ED33 value was 802 mg/kg.

COc1ccc2cc(C(C)C(=O)SC(C)C(=O)NCC(=O)O)ccc2c1 (single isomer, unassigned) [arginine crystalline product, Arginine salt of DL-2-(6-methoxy-2-napthyl)propionyl-alpha-thio-propionylglycine]
solubility in water [1]: soluble in water | pH ([1]; pH of the product dissolved in water): 7.3

COc1ccc2cc(C(C)C(=O)SC(C)C(=O)NCC(=O)O)ccc2c1 (single isomer, unassigned) [L(+)-lysine salt of the DL-2-(6-methoxy-2-napthyl)-alpha- th] [L(+)lysine salt of DL-2-(6-methoxy-2-napthyl)-propionyl-alpha-thio-propionylglycine acid]
solubility in water [1]: perfectly soluble in water

COc1ccc2cc(C(C)C(=O)SC(C)C(=O)NCC(=O)O)ccc2c1 (racemic) [NXTP, propionylerytrhomycin salt of DL-2-(6-methoxy-2-napthyl)-propionyl-alpha-thio-propionylglycine]
viscosity reduction (net of the 13% reduction with physiological solution) [2]: 16% | viscosity reduction (total) [2]: 29% | ED33 ([3]; same value in molar unit): 651 µmol/kg | ED33 ([3]; tested dosages 50, 100, 200 and 400 mg/kg, calculated because 50% inhibition was not attained): 759 mg/kg | oedema inhibition (dose dependence) ([3]; dosages 50, 100, 200 and 400 mg/kg, versus control group): causes the oedema to be inhibited proportionally to the administered dose | inhibition rate ([3]; oedema inhibition at 50, 100, 200 and 400 mg/kg, 50% attained in no case): < 50% | ED50 ([4]; Mus musculus, sc, inhibition of contorsions induced by acetic acid, subcutaneous route, tested doses 50, 100 and 200 mg/kg): 400 mg/kg | inhibition of the number of contorsions (dose dependence) ([4]; doses 50, 100 and 200 mg/kg by subcutaneous route): in a rate proportional to the administered doses | ED33 [5]: 802 mg/kg
